From ChEMBL document CHEMBL1201862, “PubChem BioAssay data set” (2004)
Values belong to the molecule of their own block, whether it stands above or below them. The source made the active and inactive calls.

Tests used:
HEK293 [1] = experiment: SAR Analysis of small molecule inhibitors of B-cell specific antigen receptor-induced NF-kB activation in a HEK-293T cell line using a luminescence assay - Set 2. [Related pubchem assays (depositor defined):AID435022, AID435025, AID489021]; format: functional, cell-based; settings: Homo sapiens
HEK293 [2] = experiment: cytotoxicity in HEK293T NF-kB-Luc cells, SAR follow-up, cytotoxicity control for NF-kB activator project, cell-based, resazurin fluorescence (AID 493251); format: functional; settings: Homo sapiens
Jurkat = experiment: SAR Analysis of small molecule inhibitors of […] specific antigen receptor-induced NF-kB activation in a Jurkat cell line using a luminescence assay - Set 3. [Related pubchem assays (depositor defined):AID435022, AID435025, AID465]; format: functional, cell-based; settings: Homo sapiens
[3] = biological target: T1, Voltage-gated N-type calcium channel alpha-1B subunit/Amyloid beta A4 precursor protein-binding family A member 1 (Homo sapiens, UniProt Q00975+Q02410); experiment: disruptors of Mint-PDZ/N-type channel peptide interaction – biochemical, HTRF, set 2, SAR follow-up (AID 434980); format: functional
[4] = biological target: T1, Voltage-gated N-type calcium channel alpha-1B subunit/Amyloid beta A4 precursor protein-binding family A member 1; experiment: disruptors of Mint-PDZ/N-type channel peptide interaction – biochemical, HTRF, SAR follow-up (AID 2489); format: functional
SUMO E1/E2 = SUMO E1/E2 (Homo sapiens, UniProt P63279+Q9UBE0+Q9UBT2); experiment: SAR analysis of SUMOylation using HTRF in an in-Vitro dose response assay. [Related pubchem assays (depositor defined):AID2006, AID2011, AID2018, AID2069, AID2658]; format: functional
[5] = biological target: DNA repair protein RAD52 homolog (Homo sapiens, UniProt P43351); format: functional, biochemical
[6] = biological target: T2, Sentrin-specific protease 7 (Homo sapiens, UniProt Q9BQF6); experiment: SENP7 protease inhibitors, SAR follow-up, biochemical, luminescence (AID 504497); format: functional
T2 sequence (Q9BQF6 whole entry): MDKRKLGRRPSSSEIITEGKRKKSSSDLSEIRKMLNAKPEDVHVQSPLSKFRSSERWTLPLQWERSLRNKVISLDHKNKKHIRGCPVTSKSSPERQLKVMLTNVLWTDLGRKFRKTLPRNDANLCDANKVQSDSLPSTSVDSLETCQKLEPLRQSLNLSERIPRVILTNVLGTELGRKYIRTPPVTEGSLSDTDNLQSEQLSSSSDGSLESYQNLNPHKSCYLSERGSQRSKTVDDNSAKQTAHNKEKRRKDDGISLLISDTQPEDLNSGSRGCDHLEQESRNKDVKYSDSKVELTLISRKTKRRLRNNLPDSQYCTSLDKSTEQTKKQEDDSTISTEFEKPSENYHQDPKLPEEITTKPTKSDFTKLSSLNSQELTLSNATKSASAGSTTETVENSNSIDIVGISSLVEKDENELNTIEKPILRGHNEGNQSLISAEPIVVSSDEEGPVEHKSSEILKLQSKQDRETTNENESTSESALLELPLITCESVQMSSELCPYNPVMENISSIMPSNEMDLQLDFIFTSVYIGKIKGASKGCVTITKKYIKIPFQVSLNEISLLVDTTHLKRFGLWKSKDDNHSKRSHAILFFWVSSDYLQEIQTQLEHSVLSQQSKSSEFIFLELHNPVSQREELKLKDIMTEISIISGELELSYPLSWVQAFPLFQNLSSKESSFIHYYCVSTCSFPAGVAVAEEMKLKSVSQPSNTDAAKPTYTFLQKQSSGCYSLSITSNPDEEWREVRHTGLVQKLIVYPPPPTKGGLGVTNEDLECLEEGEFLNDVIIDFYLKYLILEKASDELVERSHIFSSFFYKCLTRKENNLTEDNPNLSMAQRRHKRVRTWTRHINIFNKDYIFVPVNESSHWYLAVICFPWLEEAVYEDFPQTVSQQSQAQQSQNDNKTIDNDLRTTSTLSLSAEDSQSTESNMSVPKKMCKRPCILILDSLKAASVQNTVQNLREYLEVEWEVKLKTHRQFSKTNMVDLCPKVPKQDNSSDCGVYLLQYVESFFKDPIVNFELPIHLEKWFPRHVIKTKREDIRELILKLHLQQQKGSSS

Caspase-3 = biological target: T3, Caspase-3 (Homo sapiens, UniProt P42574); experiment: SAR Analysis of small molecule inhibitors of Sentrin-specific proteases (SENPs) using a Caspase-3 Selectivity assay. [Related pubchem assays (depositor defined):AID2540, AID2599, AID434973, AID489001]; format: functional
T3 sequence (P42574 whole entry): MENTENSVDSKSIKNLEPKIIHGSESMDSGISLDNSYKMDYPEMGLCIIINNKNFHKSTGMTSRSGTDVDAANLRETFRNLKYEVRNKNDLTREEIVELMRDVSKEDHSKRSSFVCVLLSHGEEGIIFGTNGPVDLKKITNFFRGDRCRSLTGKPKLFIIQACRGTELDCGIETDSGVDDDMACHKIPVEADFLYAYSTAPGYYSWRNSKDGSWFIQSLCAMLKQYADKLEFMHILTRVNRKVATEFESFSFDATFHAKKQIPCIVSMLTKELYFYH

[7] = biological target: T4, Sentrin-specific protease 6 (Homo sapiens, UniProt Q9GZR1); experiment: SAR Analysis of small molecule inhibitors of Sentrin-specific protease 6 (SENP6) using a Luminescent assay. [Related pubchem assays (depositor defined):AID2582, AID2599]; format: functional
T4 sequence (Q9GZR1 whole entry): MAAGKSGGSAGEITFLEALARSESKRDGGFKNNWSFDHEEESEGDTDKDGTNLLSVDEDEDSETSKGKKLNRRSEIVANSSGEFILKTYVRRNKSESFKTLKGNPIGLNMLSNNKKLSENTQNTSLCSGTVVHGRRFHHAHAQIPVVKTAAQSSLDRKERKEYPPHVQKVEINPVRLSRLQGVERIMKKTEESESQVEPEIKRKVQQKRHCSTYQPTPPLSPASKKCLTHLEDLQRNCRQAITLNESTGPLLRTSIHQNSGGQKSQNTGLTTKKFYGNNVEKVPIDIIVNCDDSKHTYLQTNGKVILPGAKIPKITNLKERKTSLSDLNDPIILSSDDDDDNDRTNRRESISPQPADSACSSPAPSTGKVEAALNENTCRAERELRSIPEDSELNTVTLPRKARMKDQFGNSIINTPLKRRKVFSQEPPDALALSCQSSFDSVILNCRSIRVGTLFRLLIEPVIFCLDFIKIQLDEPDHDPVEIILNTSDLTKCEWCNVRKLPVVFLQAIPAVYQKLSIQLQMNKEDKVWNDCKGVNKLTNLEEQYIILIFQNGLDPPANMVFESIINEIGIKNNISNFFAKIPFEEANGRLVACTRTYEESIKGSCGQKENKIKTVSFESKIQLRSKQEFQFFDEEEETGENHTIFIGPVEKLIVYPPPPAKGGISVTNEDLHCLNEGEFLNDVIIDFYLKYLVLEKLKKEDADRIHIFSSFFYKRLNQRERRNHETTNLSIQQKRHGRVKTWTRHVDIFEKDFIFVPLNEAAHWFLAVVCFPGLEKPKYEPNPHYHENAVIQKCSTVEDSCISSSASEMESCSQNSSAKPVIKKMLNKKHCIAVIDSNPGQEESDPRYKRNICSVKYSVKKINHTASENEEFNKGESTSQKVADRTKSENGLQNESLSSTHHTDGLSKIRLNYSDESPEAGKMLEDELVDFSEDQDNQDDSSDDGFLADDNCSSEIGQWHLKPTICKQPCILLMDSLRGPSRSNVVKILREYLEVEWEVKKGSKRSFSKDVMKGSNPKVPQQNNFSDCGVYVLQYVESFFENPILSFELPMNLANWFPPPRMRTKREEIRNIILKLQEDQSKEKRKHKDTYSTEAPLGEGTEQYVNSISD

[8] = biological target: T5, Sentrin-specific protease 8 (Homo sapiens, UniProt Q96LD8); experiment: SENP8 protease inhibitors, SAR follow-up, biochemical, luminescence (AID 504501); format: functional
T5 sequence (Q96LD8 whole entry): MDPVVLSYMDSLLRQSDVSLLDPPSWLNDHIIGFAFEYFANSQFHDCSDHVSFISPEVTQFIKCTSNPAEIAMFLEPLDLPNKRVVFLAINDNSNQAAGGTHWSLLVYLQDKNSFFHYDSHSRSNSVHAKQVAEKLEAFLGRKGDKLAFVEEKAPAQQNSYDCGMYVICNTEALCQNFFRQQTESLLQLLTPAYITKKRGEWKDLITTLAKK

Escherichia coli [9] = experiment: microbe, parasite or virus in culture
Escherichia coli [10] = experiment: microbe, parasite or virus in culture; remark: listed apart in the source
A-375 [11] = experiment: A375 melanoma cell viability reduction, dose response, counter-screen for MITF modulator project, cherry-pick samples, set 2 (AID 540335); format: functional, cell-based; settings: Homo sapiens
A-375 [12] = experiment: MITF: Counter assay: A375 proliferation Measured in Cell-Based System Using Plate Reader - 2084-03_Inhibitor_Dose_DryPowder_Activity. [Related pubchem assays (depositor defined):AID488944]; format: functional; settings: Homo sapiens
Phospholipase D1 = Phospholipase D1 (Homo sapiens, UniProt Q13393); experiment: PLD1 inhibitor potency in cells, dose response (AID 602151); format: functional;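 also: cellular PLD1 assay in Calu-1 cells stimulated with PMA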
Phospholipase D2 = Phospholipase D2 (Homo sapiens, UniProt O14939); experiment: PLD2 inhibitor potency in cells, dose response (AID 602147); format: functional;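 also: cellular assay in HEK293 cells overexpressing GFP-tagged PLD2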
[13] = biological target: T6, Heat shock factor protein 1 (Mus musculus, UniProt P38532); experiment: inhibition of MG132-induced HSE-luciferase signal, confirmation, cell-based, NIH3T3, luminescence, dose retest (AID 2382); format: functional;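 also: NIH3T3 fibroblasts with HSF1-driven luciferase reporter stressed by proteasome inhibitor MG132; luminescence from HSF1-driven luciferase expression after 8 hours of MG132 stress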
T6 sequence (P38532 whole entry): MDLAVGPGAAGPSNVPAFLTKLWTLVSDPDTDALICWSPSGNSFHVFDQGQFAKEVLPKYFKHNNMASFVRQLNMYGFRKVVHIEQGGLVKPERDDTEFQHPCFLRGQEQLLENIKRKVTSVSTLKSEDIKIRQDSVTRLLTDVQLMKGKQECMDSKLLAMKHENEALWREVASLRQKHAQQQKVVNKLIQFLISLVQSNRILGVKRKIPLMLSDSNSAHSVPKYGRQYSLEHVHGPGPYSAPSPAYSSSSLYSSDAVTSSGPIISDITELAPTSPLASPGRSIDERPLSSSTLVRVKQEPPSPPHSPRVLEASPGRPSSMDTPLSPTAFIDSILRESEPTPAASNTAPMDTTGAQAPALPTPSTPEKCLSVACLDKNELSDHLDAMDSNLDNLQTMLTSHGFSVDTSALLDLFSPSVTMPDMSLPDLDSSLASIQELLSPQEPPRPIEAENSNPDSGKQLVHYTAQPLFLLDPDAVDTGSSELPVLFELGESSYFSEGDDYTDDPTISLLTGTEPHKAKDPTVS

Chain of Phospholipase D2 (O14939 whole entry): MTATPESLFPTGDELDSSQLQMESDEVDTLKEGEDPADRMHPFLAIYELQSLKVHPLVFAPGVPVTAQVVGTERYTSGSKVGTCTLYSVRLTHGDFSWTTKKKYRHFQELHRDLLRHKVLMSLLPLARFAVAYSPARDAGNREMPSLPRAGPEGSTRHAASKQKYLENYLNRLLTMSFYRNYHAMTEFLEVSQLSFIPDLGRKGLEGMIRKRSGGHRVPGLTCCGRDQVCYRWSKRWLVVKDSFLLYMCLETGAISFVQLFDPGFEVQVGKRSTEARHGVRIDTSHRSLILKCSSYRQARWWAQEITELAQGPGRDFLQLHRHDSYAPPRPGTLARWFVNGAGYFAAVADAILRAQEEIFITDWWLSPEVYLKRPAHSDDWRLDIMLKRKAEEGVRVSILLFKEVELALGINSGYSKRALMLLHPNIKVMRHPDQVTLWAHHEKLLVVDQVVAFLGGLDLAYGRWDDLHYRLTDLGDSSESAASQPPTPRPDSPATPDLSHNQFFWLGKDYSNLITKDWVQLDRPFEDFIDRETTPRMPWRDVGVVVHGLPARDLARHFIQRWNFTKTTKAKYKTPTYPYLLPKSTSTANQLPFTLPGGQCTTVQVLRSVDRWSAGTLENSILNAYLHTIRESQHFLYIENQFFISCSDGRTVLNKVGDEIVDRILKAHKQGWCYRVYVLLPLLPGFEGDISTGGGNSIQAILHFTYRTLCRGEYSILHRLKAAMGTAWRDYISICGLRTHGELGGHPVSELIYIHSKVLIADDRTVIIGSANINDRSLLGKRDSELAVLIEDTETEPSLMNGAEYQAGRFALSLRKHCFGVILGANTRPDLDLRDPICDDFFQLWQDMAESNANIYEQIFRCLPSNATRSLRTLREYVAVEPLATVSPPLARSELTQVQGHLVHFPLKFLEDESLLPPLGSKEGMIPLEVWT
Chain of Phospholipase D1 (Q13393 whole entry): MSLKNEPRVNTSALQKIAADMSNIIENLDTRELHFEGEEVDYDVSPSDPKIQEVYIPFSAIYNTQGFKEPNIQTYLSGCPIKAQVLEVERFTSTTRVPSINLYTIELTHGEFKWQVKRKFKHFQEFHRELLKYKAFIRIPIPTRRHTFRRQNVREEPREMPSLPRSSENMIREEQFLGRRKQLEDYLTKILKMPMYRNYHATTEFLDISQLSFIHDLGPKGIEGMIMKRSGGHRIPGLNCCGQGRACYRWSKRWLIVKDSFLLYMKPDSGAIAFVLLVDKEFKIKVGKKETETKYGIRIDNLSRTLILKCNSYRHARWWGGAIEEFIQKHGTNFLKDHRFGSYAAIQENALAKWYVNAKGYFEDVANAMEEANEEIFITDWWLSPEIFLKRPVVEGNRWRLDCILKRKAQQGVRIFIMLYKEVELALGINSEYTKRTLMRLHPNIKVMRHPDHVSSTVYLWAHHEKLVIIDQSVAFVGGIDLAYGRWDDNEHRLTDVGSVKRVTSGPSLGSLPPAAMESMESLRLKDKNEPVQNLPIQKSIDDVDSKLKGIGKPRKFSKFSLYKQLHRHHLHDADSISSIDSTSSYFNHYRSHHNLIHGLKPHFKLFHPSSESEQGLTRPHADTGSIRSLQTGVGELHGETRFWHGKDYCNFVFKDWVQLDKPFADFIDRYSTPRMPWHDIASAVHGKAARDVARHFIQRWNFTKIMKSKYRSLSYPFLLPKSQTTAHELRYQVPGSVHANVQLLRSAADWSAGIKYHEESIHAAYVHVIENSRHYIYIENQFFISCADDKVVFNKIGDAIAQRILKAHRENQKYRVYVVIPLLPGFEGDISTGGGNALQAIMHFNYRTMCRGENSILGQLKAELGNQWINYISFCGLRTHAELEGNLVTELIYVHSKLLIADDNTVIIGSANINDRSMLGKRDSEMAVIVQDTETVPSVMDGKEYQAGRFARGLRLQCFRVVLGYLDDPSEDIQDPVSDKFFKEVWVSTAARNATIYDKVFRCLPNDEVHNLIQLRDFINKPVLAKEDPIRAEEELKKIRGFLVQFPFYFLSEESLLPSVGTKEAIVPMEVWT
Chain of SUMO E1/E2 (Q9UBE0 whole entry): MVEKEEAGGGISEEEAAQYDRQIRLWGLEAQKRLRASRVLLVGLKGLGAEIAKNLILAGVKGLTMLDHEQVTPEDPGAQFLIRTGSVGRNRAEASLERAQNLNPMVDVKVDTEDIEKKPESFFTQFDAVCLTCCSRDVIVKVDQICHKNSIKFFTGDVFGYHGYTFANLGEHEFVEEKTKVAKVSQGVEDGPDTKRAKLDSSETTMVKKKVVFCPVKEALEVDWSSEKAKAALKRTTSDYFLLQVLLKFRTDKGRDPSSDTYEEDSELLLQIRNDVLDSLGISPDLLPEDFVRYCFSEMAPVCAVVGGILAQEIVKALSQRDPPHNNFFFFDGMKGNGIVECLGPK
Chain of SUMO E1/E2 (Q9UBT2 whole entry): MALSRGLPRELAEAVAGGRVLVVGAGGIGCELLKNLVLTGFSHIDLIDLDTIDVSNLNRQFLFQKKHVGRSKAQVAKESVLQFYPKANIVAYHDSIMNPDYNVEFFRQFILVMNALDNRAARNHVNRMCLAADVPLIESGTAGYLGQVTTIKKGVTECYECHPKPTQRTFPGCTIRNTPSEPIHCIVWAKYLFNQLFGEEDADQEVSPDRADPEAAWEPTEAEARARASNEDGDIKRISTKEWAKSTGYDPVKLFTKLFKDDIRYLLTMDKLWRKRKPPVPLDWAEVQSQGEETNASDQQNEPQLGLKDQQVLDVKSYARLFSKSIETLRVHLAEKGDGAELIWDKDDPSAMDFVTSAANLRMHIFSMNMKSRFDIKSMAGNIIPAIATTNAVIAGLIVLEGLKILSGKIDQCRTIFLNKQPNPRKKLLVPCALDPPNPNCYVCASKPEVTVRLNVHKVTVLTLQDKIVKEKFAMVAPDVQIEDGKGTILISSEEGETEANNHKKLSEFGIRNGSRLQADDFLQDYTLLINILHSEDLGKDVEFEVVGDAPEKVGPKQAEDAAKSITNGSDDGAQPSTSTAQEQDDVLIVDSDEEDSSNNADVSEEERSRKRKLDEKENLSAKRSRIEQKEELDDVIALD
Chain of SUMO E1/E2 (P63279 whole entry): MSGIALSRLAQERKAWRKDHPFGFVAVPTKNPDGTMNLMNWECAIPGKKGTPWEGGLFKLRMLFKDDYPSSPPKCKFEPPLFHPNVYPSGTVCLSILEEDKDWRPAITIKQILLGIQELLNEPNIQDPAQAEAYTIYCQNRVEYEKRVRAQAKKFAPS
Chain of DNA repair protein RAD52 homolog (P43351 whole entry): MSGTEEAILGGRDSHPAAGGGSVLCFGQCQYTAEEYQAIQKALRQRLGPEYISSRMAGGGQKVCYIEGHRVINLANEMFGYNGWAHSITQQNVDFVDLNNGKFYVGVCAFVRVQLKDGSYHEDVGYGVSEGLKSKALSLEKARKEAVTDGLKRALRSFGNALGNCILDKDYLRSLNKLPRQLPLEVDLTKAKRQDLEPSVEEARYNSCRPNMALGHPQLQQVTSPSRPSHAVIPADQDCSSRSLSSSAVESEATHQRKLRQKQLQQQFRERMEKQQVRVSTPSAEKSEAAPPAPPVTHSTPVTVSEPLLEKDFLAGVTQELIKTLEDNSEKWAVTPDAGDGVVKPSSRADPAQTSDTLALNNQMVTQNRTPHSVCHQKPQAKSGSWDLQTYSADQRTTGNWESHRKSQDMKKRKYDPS

Compound: CCOc1ccc(-c2nc(CSCC(=O)NCCc3ccccc3)c(C)o2)cc1
IC50 (HEK293 [1]): 22.9 µM (inactive) | IC50 (HEK293 [2]): 35.6 µM (inactive) | IC50 (Jurkat): 55 µM (inactive)

IC50 [3]: 6 µM (active) | IC50 [4]: 5.19 µM (active) | IC50 (SUMO E1/E2): 2.01 µM (active) | AC50 [5]: 11.7 µM (active)
Compound: CCN(CC)CCNC(=O)c1cc(-c2ccco2)nc2ccccc12

IC50 [6]: > 99 µM (inactive) | IC50 (Caspase-3): > 99 µM (inactive) | IC50 [7]: > 99 µM (inactive)
Compound: COc1ccccc1CC(=O)Nc1ccc(-c2noc(/C=C/c3ccccc3)n2)cc1
IC50 [8]: > 99 µM (inactive)

Compound: Cc1ccc(C2CC2/C(=N/O)c2ccc(F)cc2)cc1 (centres undefined)
AC50 (Escherichia coli [9]): 53.3 µM (active) | AC50 (Escherichia coli [10]): 25.9 µM (active)

Compound: CCOc1ccc(N(CC(=O)Nc2ccc(OC)cc2)S(C)(=O)=O)cc1
AC50 (A-375 [11]): > 35 µM (active) | AC50 (A-375 [12]): > 35 µM (active)

Compound: O=C(NCCN1CCC2(CC1)C(=O)NCN2c1ccc(Cl)cc1)c1ccc(Cl)cc1
IC50 (Phospholipase D1): 3.59 µM (active) | IC50 (Phospholipase D2): 0.635 µM (active)

Compound: CCN1CCN(CCCNc2[nH]cnc3ncnc2-3)CC1
EC50 [13]: > 195 µM (not active) | AC50 (Escherichia coli [9]): 74.1 µM (active)

Compound: C[C@@H](CN1CCC(n2c(=O)[nH]c3ccccc32)CC1)NC(=O)c1ccco1
IC50 (Phospholipase D1): 0.19 µM (active) | IC50 (Phospholipase D2): 7.9 µM (active)

Compound: CC(C)CNC(=O)CCc1nc(-c2ccc(C(C)(C)C)cc2)no1
IC50 (HEK293 [1]): 1.51 µM (active) | IC50 (HEK293 [2]): > 80 µM (inactive) | IC50 (Jurkat): 2.97 µM (active)
